Legend:
[1] = test system: IL-2 production in human peripheral blood mononuclear cell (PBMC); assay: Human PBMC CD3/CD28-induced IL-2 production inhibition test; format: cell-based; conditions: 48 h, CD3/CD28 stimulation, incubation for 2 days, ELISA
From the text: Human Peripheral Blood Mononuclear Cell (PBMC) CD3/CD28-Induced IL-2 Production Inhibition Test
PBMC was separated and collected by using Ficoll-Paque (17-1440-02 manufactured by GE Healthcare Japan Corp.) from blood collected from healthy human adult in the presence of heparin. RPMI1640 medium (manufactured by GIBCO/Thermo Fisher Scientific, Inc., REF. 11875) containing 10% FBS (manufactured by GIBCO/Thermo Fisher Scientific, Inc. REF. 10082) and containing a test compound dissolved in DMSO and 2 μg/mL anti-hCD28 (manufactured by R&D Systems, Inc., Cat. No. MAB342) was added at 100 μL/well to T cell Activation Plate Anti-Human CD3 96-well plate (manufactured by Corning Inc., REF. 354725), and subsequently, a PBMC suspension adjusted such that the number of cells was 2×10^6 cells/mL was added at 100 μL/well (final DMSO concentration: 0.1%). A RPMI1640 medium containing 10% FBS and containing 0.1% DMSO and 2 μg/mL anti-hCD28 was similarly added to wells not supplemented with the test compound. After incubation for 2 days in a carbon dioxide incubator, the culture supernatant was collected. The collected culture supernatant was stored at −20° C. until IL-2 content measurement.
In the measurement of IL-2 content in the culture supernatant, a sandwich ELISA kit Quantikine Human IL-2 (manufactured by R&D Systems, Inc., Cat. No. S2050) was used. The IL-2 content of each sample was calculated from the calibration curve of Standard IL-2 included in the kit. When the amount of IL-2 produced by CD3/CD28 stimulation in the case of the addition of only DMSO was defined as 100%, the rate of inhibition of IL-2 production at each concentration of the test compound was calculated. A test compound concentration inhibiting 50% of IL-2 production was calculated as an IC50 value (nM) from the concentration of the added test compound and the rate of inhibition of IL-2 production by the test compound by using EXSUS (version 8.0.0 or version 8.0.1, manufactured by CAC Exicare Corp.).

[2] = test system: mouse imiquimod-induced psoriasis model; assay: Ear thickening suppression test using mouse imiquimod-induced psoriasis model; format: in vivo; conditions: topical, 120 h, thickness measured on day 5, BALB/c mice, read-out: rate of inhibition of increase in right auricle thickness; for inhibition in vivo at 0.01 %: application of a 0.01% methanol solution for 4 days; for inhibition in vivo at 1 %: application of a 1% solution in methanol for 4 days
Summary of the method: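 Female BALB/c mice received test compound topically or orally, then 5 mg imiquimod cream (5%) on the right auricle 60 minutes later, daily for 4 days. Ear thickness was measured on day 5. Inhibition (%) of thickening was calculated relative to the solvent group, taken as 100%.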

PAK4 = target: T1, PAK4 (Homo sapiens, UniProt O96013); assay: PAK4 enzyme inhibition test; format: biochemical; conditions: Ki=IC50/(1+S/Km); 33P bound to MBP, [γ-33P]ATP, 30° C. for 20 minutes; read-out: Ki value of PAK4 inhibitory activity
T1 construct: purchased Invitrogen Corp. PV4212
Summary of the method: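 Radiometric assay: PAK4 with MBP substrate and 40 μM [γ-^33P]ATP solution in Tris pH 7.5 buffer with MgCl2, DTT, EGTA, reacted 20 min at 30 °C. TCA-precipitated, washed ^33P-MBP counted by scintillation. IC50 from inhibition of ^33P incorporation; Ki = IC50/(1+S/Km).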

T1 sequence (O96013 whole entry): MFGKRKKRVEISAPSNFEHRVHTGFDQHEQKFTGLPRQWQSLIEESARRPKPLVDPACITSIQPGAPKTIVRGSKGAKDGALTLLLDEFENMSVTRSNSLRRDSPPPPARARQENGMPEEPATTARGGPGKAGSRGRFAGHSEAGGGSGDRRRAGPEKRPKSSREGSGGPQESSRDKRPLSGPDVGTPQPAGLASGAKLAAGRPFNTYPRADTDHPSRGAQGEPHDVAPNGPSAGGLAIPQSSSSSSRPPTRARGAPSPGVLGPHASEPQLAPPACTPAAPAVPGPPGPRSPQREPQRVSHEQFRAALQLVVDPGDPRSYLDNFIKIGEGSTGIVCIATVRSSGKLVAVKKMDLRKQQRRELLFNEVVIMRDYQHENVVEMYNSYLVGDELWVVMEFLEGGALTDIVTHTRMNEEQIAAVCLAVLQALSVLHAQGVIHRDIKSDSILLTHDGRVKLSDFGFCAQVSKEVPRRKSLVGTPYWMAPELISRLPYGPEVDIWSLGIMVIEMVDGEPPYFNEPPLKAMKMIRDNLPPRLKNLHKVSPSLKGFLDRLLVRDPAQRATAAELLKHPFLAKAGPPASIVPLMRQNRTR

| SMILES | IC50 [1] [nM] | inhibition in vivo at 0.01 % [2] [%] | Ki (PAK4) [nM] | inhibition in vivo at 1 % [2] [%] |
| --- | --- | --- | --- | --- |
| CC(C)(CO)C(NC(=O)N1Cc2c(NC(=O)C3([Si](C)(C)C)CCC3)n[nH]c2C1(C)C)c1ccccc1 (racemic) [IV-354, N-(3-Hydroxy-2,2-dimethyl-1-phenylpropyl)-6,6-dimethyl-3-[1-(trimethylsilyl)cyclobutanecarboxamido]-4,6-dihydropyrrolo[3,4-c]pyrazole-5(1H)-carboxamide] | ≤ 50 | ≥ 50 |  |  |
| CC1(C)c2[nH]nc(NC(=O)C(C)(C)[Si](C)(C)C)c2CN1C(=O)N[C@H](CO)c1ccccc1 [II-114, (S)—N-(2-Hydroxy-1-phenylethyl)-6,6-dimethyl-3-[2-methyl-2-(trimethylsilyl)propanamido]-4,6-dihydropyrrolo[3,4-c]pyrazole-5(1H)-carboxamide] | ≤ 50 |  | ≥ 500 |  |
| CC1(C)c2[nH]nc(NC(=O)C3([Si](C)(C)C)CC3)c2CN1C(=O)N[C@H](CO)c1ccccc1 [III-114, (S)—N-(2-Hydroxy-1-phenylethyl)-6,6-dimethyl-3-[1-(trimethylsilyl)cyclopropanecarboxamido]-4,6-dihydropyrrolo[3,4-c]pyrazole-5(1H)-carboxamide] | ≤ 50 |  | ≥ 500 |  |
| CC1(C)c2[nH]nc(NC(=O)C3([Si](C)(C)C)CCC3)c2CN1C(=O)N[C@H](CO)c1ccccc1 [IV-114, (S)—N-(2-Hydroxy-1-phenylethyl)-6,6-dimethyl-3-[1-(trimethylsilyl)cyclobutanecarboxamido]-4,6-dihydropyrrolo[3,4-c]pyrazole-5(1H)-carboxamide] | ≤ 50 |  | ≥ 500 | ≥ 50 |
| COC[C@@H](NC(=O)N1Cc2c(NC(=O)C3([Si](C)(C)C)CCC3)n[nH]c2C1(C)C)c1ccccc1 [IV-123, (S)—N-(2-Methoxy-1-phenylethyl)-6,6-dimethyl-3-[1-(trimethylsilyl)cyclobutanecarboxamido]-4,6-dihydropyrrolo[3,4-c]pyrazole-5(1H)-carboxamide] | ≤ 50 |  | ≥ 500 | ≥ 50 |
| CCOC[C@@H](NC(=O)N1Cc2c(NC(=O)C3([Si](C)(C)C)CCC3)n[nH]c2C1(C)C)c1ccccc1 [IV-139, (S)—N-(2-Ethoxy-1-phenylethyl)-6,6-dimethyl-3-[1-(trimethylsilyl)cyclobutanecarboxamido]-4,6-dihydropyrrolo[3,4-c]pyrazole-5(1H)-carboxamide] | ≤ 50 |  |  |  |
| CC(C)(O)[C@@H](NC(=O)N1Cc2c(NC(=O)C3([Si](C)(C)C)CCC3)n[nH]c2C1(C)C)c1ccccc1 [IV-171, (S)—N-(2-Hydroxy-2-methyl-1-phenylpropyl)-6,6-dimethyl-3-[1-(trimethylsilyl)cyclobutanecarboxamido]-4,6-dihydropyrrolo[3,4-c]pyrazole-5(1H)-carboxamide] | ≤ 50 |  | ≥ 500 |  |
| CC1(C)c2[nH]nc(NC(=O)C3([Si](C)(C)C)CCC3)c2CN1C(=O)N[C@H](CCO)c1ccccc1 [IV-227, (R)—N-(3-Hydroxy-1-phenylpropyl)-6,6-dimethyl-3-[1-(trimethylsilyl)cyclobutanecarboxamido]-4,6-dihydropyrrolo[3,4-c]pyrazole-5(1H)-carboxamide] | ≤ 50 |  | ≥ 500 | ≥ 50 |
| CC1(C)c2[nH]nc(NC(=O)C3([Si](C)(C)C)CCC3)c2CN1C(=O)N[C@H](CCCO)c1ccccc1 [IV-283, (R)—N-(4-Hydroxy-1-phenylbutyl)-6,6-dimethyl-3-[1-(trimethylsilyl)cyclobutanecarboxamido]-4,6-dihydropyrrolo[3,4-c]pyrazole-5(1H)-carboxamide] | ≤ 50 |  | ≥ 500 |  |
| CC(C)(O)C[C@@H](NC(=O)N1Cc2c(NC(=O)C3([Si](C)(C)C)CCC3)n[nH]c2C1(C)C)c1ccccc1 [IV-299, (R)—N-(3-Hydroxy-3-methyl-1-phenylbutyl)-6,6-dimethyl-3-[1-(trimethylsilyl)cyclobutanecarboxamido]-4,6-dihydropyrrolo[3,4-c]pyrazole-5(1H)-carboxamide] | ≤ 50 | ≥ 50 | ≥ 500 |  |
| CC1(C)c2[nH]nc(NC(=O)C3([Si](C)(C)C)CCC3)c2CN1C(=O)NCC(O)c1ccccc1 (centres unmarked) [IV-450, N-(2-Hydroxy-2-phenylethyl)-6,6-dimethyl-3-[1-(trimethylsilyl)cyclobutanecarboxamido]-4,6-dihydropyrrolo[3,4-c]pyrazole-5(1H)-carboxamide] | ≤ 50 |  | ≥ 500 |  |
| CO[C@@H](C(=O)N1Cc2c(NC(=O)C3([Si](C)(C)C)CCC3)n[nH]c2C1(C)C)c1ccccc1 [IV-1175, (R)—N-[5-(2-Methoxy-2-phenylacetyl)-6,6-dimethyl-1,4,5,6-tetrahydropyrrolo[3,4-c]pyrazol-3-yl]-1-(trimethylsilyl)cyclobutanecarboxamide] | ≤ 50 | ≥ 50 |  |  |
| CC[Si](C)(C)C1(C(=O)Nc2n[nH]c3c2CN(C(=O)[C@H](OC)c2ccccc2)C3(C)C)CCC1 [IV-1178, (R)-1-(Ethyldimethylsilyl)-N-[5-(2-methoxy-2-phenylacetyl)-6,6-dimethyl-1,4,5,6-tetrahydropyrrolo[3,4-c]pyrazol-3-yl] cyclobutanecarboxamide] | ≤ 50 | ≥ 50 |  |  |
| CC1(C)c2[nH]nc(NC(=O)C3([Si](C)(C)C)CCC3)c2CN1C(=O)[C@H](OC(F)F)c1ccccc1 [IV-1180, (R)—N-{5-[2-(Difluoromethoxy)-2-phenylacetyl]-6,6-dimethyl-1,4,5,6-tetrahydropyrrolo[3,4-c]pyrazol-3-yl}-1-(trimethylsilyl)cyclobutanecarboxamide] | ≤ 50 | ≥ 50 |  |  |
| CCO[C@@H](C(=O)N1Cc2c(NC(=O)C3([Si](C)(C)C)CCC3)n[nH]c2C1(C)C)c1ccccc1 [IV-1188, (R)—N-[5-(2-Ethoxy-2-phenylacetyl)-6,6-dimethyl-1,4,5,6-tetrahydropyrrolo[3,4-c]pyrazol-3-yl]-1-(trimethylsilyl)cyclobutanecarboxamide] | ≤ 50 | ≥ 50 |  |  |
| CC1(C)c2[nH]nc(NC(=O)C3([Si](C)(C)C)CCC3)c2CN1C(=O)[C@H](OC1CC1)c1ccccc1 [IV-1208, (R)—N-[5-(2-Cyclopropoxy-2-phenylacetyl)-6,6-dimethyl-1,4,5,6-tetrahydropyrrolo[3,4-c]pyrazol-3-yl]-1-(trimethylsilyl)cyclobutanecarboxamide] |  | ≥ 50 | ≥ 500 |  |
| CO[C@@H](C(=O)N1Cc2c(NC(=O)C3([Si](C)(C)C)CCC3)n[nH]c2C1(C)C)c1ccccc1F [IV-1383, (R)—N-{5-[2-(2-Fluorophenyl)-2-methoxyacetyl]-6,6-dimethyl-1,4,5,6-tetrahydropyrrolo[3,4-c]pyrazol-3-yl}-1-(trimethylsilyl)cyclobutanecarboxamide] |  | ≥ 50 | ≥ 500 |  |
| COC(C(=O)N1Cc2c(NC(=O)C3([Si](C)(C)C)CCC3)n[nH]c2C1(C)C)c1cccc(F)c1 (centres unmarked) [IV-1404, N-{5-[2-(3-Fluorophenyl)-2-methoxyacetyl]-6,6-dimethyl-1,4,5,6-tetrahydropyrrolo[3,4-c]pyrazol-3-yl}-1-(trimethylsilyl)cyclobutanecarboxamide] |  | ≥ 50 | ≥ 500 |  |
| COC(C(=O)N1Cc2c(NC(=O)C3([Si](C)(C)C)CCC3)n[nH]c2C1(C)C)c1cccs1 (centres unmarked) [IV-1546, N-{5-[2-Methoxy-2-(thiophen-2-yl)acetyl]-6,6-dimethyl-1,4,5,6-tetrahydropyrrolo[3,4-c]pyrazol-3-yl}-1-(trimethylsilyl)cyclobutanecarboxamide] |  | ≥ 50 | ≥ 500 |  |
